# Biological target: rat brain cortical membranes ([35S]-TBPS binding; GABAA receptor)
# Experiment: Steroid inhibition of [35S]-TBPS binding (radioligand displacement)
# Settings: 3 nM [35S]-TBPS, in the presence of 5 μM GABA, 90 min at room temp
# Excerpt: TBPS binding assays using rat brain cortical membranes in the presence of […] GABA has been described (Gee et al, J. Pharmacol. Exp. Ther. 1987, 241, 346-353; Hawkinson et al, Mol. Pharmacol. 1994, 46, 977-985; Lewin, A. H et al., Mol. Pharmacol. 1989, 35, 189-194).
# Briefly, cortices are rapidly removed following decapitation of carbon dioxide-anesthetized Sprague-Dawley rats (200-250 g). The cortices are homogenized in 10 volumes of ice-cold 0.32 M sucrose using a glass/teflon homogenizer and centrifuged at 1500×g for 10 min at 4° C. The resultant supernatants are centrifuged at 10,000×g for 20 min at 4° C.; to obtain the P2 pellets. The P2 pellets are resuspended in 200 mM NaCl/50 mM Na—K phosphate pH 7.4 buffer and centrifuged at 10,000×g for 10 min at 4° C. This washing procedure is repeated twice and the pellets are resuspended in 10 volumes of buffer. Aliquots (100 μL) of the membrane suspensions are incubated with 3 nM [^35S]-TBPS and 5 μL aliquots of test drug dissolved in dimethyl sulfoxide (DMSO) (final 0.5%) in the presence of 5 μM GABA. The incubation is brought to a final volume of 1.0 mL with buffer. Nonspecific binding is determined in the presence of 2 μM unlabeled TBPS and ranged from 15 to 25%. Following a 90 min incubation at room temp, the assays are terminated by filtration through glass fiber filters (Schleicher and Schuell No. 32) using a cell harvester (Brandel) and rinsed three times with ice-cold buffer. Filter bound radioactivity is measured by liquid scintillation spectrometry. Non-linear curve fitting of the overall data for each drug averaged for each concentration is done using Prism (GraphPad). […] The concentration of test compound producing 50% inhibition (IC50) of specific binding and the maximal extent of inhibition (Imax) are determined for the individual experiments with the same model used for the overall data and then the means±SEM.s of the individual experiments are calculated.
# Various compounds are or can be screened to determine their potential as modulators of [^35S]-TBPS binding in vitro. These assays are or can be performed in accordance with the above discussed procedures.
row,SMILES,IC50
1,"C[C@H](C(=O)[C@H]1CC[C@H]2[C@@H]3CC[C@@H]4C[C@](C)(O)CC[C@@H]4[C@H]3CC[C@]12C)n1cc(C#N)cn1 [Compound 4, 1-((R)-1-((3R,5R,8R,9R,10S,13S,14S,17S)-3-hydroxy-3,13-dimethylhexadecahydro-1H-cyclopenta[a]phenanthren-17-yl)-1-oxopropan-2-yl)-1H-pyrazole-4-carbonitrile]",50 to 100 nM
2,"C[C@H](C(=O)[C@H]1CC[C@H]2[C@@H]3CC[C@@H]4C[C@](C)(O)CC[C@@H]4[C@H]3CC[C@]12C)n1nccn1 [Compound 1, (R)-1-((3R,5R,8R,9R,10S,13S,14S,17S)-3-hydroxy-3,13-dimethylhexadecahydro-1H-cyclopenta[a]phenanthren-17-yl)-2-(2H-1,2,3-triazol-2-yl)propan-1-one]",250 to 500 nM
3,"C[C@H](C(=O)[C@H]1CC[C@H]2[C@@H]3CC[C@@H]4C[C@](C)(O)CC[C@@H]4[C@H]3CC[C@]12C)n1nc2ccccc2n1 [Compound 7, (R)-2-(2H-benzo[d][1,2,3]triazol-2-yl)-1-((3R,5R,8R,9R,10S,13S,14S,17S)-3-hydroxy-3,13-dimethylhexadecahydro-1H-cyclopenta[a]phenanthren-17-yl)propan-1-one]",250 to 500 nM
4,"C[C@@H](C(=O)[C@H]1CC[C@H]2[C@@H]3CC[C@@H]4C[C@](C)(O)CC[C@@H]4[C@H]3CC[C@]12C)n1cc(C#N)cn1 [Compound 3, 1-((S)-1-((3R,5R,8R,9R,10S,13S,14S,17S)-3-hydroxy-3,13-dimethylhexadecahydro-1H-cyclopenta[a]phenanthren-17-yl)-1-oxopropan-2-yl)-1H-pyrazole-4-carbonitrile]",< 50 nM
5,"C[C@@H](C(=O)[C@H]1CC[C@H]2[C@@H]3CC[C@@H]4C[C@](C)(O)CC[C@@H]4[C@H]3CC[C@]12C)n1nccn1 [Compound 2, (S)-1-((3R,5R,8R,9R,10S,13S,14S,17S)-3-hydroxy-3,13-dimethylhexadecahydro-: 1H-cyclopenta[a]phenanthren-17-yl)-2-(2H-1,2,3-triazol-2-yl)propan-1-one]",50 to 100 nM
6,"CC(C(=O)[C@H]1CC[C@H]2[C@@H]3CC[C@@H]4C[C@](C)(O)CC[C@@H]4[C@H]3CC[C@]12C)N1CCOCC1 (stereo partly drawn) [Compound 5, 1-((3R,5R,8R,9R,10S,13S,14S,17S)-3-hydroxy-3,13-dimethylhexadecahydro-1H-cyclopenta[a]phenanthren-17-yl)-2-morpholinopropan-1-one]",250 to 500 nM
7,"C[C@@H](C(=O)[C@H]1CC[C@H]2[C@@H]3CC[C@@H]4C[C@](C)(O)CC[C@@H]4[C@H]3CC[C@]12C)n1nc2ccccc2n1 [Compound 6, (S)-2-(2H-benzo[d][1,2,3]triazol-2-yl)-1-((3R,5R,8R,9R,10S,13S,14S,17S)-3-hydroxy-3,1:3-dimethylhexadecahydro-1H-cyclopenta[a]phenanthren-17-yl)propan-1-one]",< 50 nM

# From US12180248B2, “Compositions and methods for treating CNS disorders” (Sage Therapeutics, Inc., priority 2014, dated 2024)
